From patent US20220265775A1, “COMPOSITIONS AND METHODS FOR TREATING PULMONARY EDEMA OR LUNG INFLAMMATION” (priority 2019, published 2022) come the findings set out here.

Structures are written as SMILES.

For one data set, the system named is HO-1. The experiment in a line: Western blot of total cellular HO-1 protein in RLE-6TN cells under hyperoxia. It counts as cell-based, rat. As to conditions: T3 10^−6 M. As to the method: FIG. 10. HO-1 upregulation is required for T3-increased RLE-6TN cell survival in hyperoxia. […] The cells were then collected for Western Blot analysis. (B) The cells were incubated in 21% O2 and 5% CO2 for 72 hours in the present of HO-1 inhibitor Tin Protoporphyrin IX (10^−6M). […] Cell viability is assessed with trypan blue. The number of viable cells under specific conditions is presented as a percentage of the cell number related to hyperoxia alone. Data are mean±s.d. of three independent experiments with *=P<0.05; **=P<0.01.
(§1) The cells were lysed in lysis buffer containing 20 mM Tris HCl (pH 7.5), 150 mM NaCl, 1 mM EDTA, 1 mM EGTA, 1% (vol/vol) Triton X-100 with protease inhibitors (1 mM PMSF, 2 μg/ml pepstatin, and 10 μg/ml each of aprotinin and leupeptin), and phosphatase inhibitors (2.5 mM sodium pyrophosphate, 1 mM β-glycerophosphate, and 1 mM Na3VO4). The lysate was drawn 10 times through a 25-gauge needle on ice for further lysis and then was centrifuged at 13,000 rpm for 15 minutes at 4° C. The supernatant was collected, and the protein concentrations were determined by use of the BCA protein assay kit (Sigma-Aldrich, St. Louis, Mo.). Immediately after this step, equal amounts of protein were subjected to Western blotting analysis.

A short description of data set [1]: Single dose toxicokinetic (TK) study, intratracheal instillation of T3, serum total T3 by chemiluminescence assay. Further details: species or system Sprague-Dawley rats. The following applies: Sprague-Dawley, rat; for AUC(0-t) / Cmax / Cmax_D / Tmax / Vz_F_obs: inhaled or intranasal. As to the method: Sixty animals (plus two spare animals/sex/group) were anesthetized and dosed via intratracheal instillation of test or control materials for five consecutive days. On the day after the last dose a terminal blood collection was performed for clinical pathology, after which animals were euthanized and a gross examination of all organs was performed by a board certified veterinary pathologist. Select tissues were collected for histopathology. […] Terminal blood collection was performed at two designated time points per animal up to 24 hours after administration for toxicokinetic evaluation. TK animals were euthanized without further evaluation after the final blood collection. All animals were acclimated for a minimum of seven days prior to the dosing procedure. Animals underwent baseline observations and examinations prior to the initiation of the study, and clinical observations and body weight monitoring were performed throughout the in-life portion of the study. All animals received the same dose volume (0.3 mL) of either test or control materials. This maximum feasible dose (MFD) is constrained by the maximum volume that can be safely and reproducibly (over five days) instilled into lungs of rats weighing 250 g to 350 g, which was determined in preliminary toxicology studies to be 0.3 mL. Actual doses delivered are reported as both μg/kg body weight and μg/gm wet lung weight. The toxicity phase animals were 72-135 days of age at the time of initial dosing. Males weighed between 256.52 g and 307.50 g with a mean±standard deviation of 286.74±11.77 g, and females weighed between 250.46 g and 299.01 g with a mean±standard deviation of 260.64±10.34 g. The TK phase animals were 68-144 days of age at the time of initial dosing. Males weighed between 261.23 g and 316.19 g; females weighed between 250.06 g and 280.32 g.
For toxicokinetic experiments, rats were anesthetized with combination of ketamine 40 mg/kg to 200 mg/kg and xylazine 1 mg/kg to 7 mg/kg, intraperitoneally (IP), to effect for dosing procedures, and dosed intratracheally with liothyronine sodium injection as previously described. Depending on the duration of time between dosing and the first or second blood collection time points, animals either had blood collected while still anesthetized under the injectable anesthetics, or if recovered, they were anesthetized with Isoflurane 2-5% and oxygen 1-1.5 L/minute by inhalation anesthesia via nose cone, as needed, to maintain adequate anesthesia depth (assessed by toe pinch). Topical proparicaine anesthetic ophthalmic solution was applied to each eye prior to performing the first blood collection and allowed time to take effect. Collection of serum samples for TK analysis was as described for serum chemistry samples above, and samples were stored at ≤−70° C. until assayed. Animals were euthanized with EUTHASOL (Virbac Corp., Fort Worth, Tex.) ≥86 mg/kg IP to effect following the final blood collection.
For assessment of serum T3 levels samples were sent to the Fairview University of Minnesota Medical Center East Bank Diagnostic Laboratory for analysis, a clinical laboratory certified by CLIA and CAP. Prior to sending serum samples to the analytical lab each sample was diluted 1:4 or 1:8 in normal (0.9%) saline. […] Samples were analyzed by a chemiluminescence assay for total triiodothyronine (T3).
An evaluation of the TK analysis was performed by Dick Brundage, PhD, University of Minnesota. Toxicokinetic parameters were estimated using Phoenix 64 WinNonlin pharmacokinetic software version 7.0. (Pharsight Corp., Mountain View, Calif.). A non-compartmental (NCA) approach consistent with the route of administration was used for parameter estimation. […] Whenever possible, mean concentrations were derived from three animals/gender/time point. Parameters were estimated using sampling times relative to the start of each dose administration. […]

The subject of a further data set is Akt. The experiment in a line: Western blot of Akt phosphorylation in RLE-6TN cells under hyperoxia. As to conditions: hyperoxia for 24 hours, T3 added for 20 minutes, vs room air control and hyperoxia alone. In kind it is cell-based, rat. As to the method: FIG. 12. T3-induced increase activation of Akt by phosphorylation. (A) T3 augmented phosphorylation of Akt (p-Akt). […] (C) The PI3K inhibitor wortmannin blocked the T3-induced increase in total cellular amount of HO-1 protein.
as §1

`N[C@@H](Cc1cc(I)c(Oc2ccc(O)c(I)c2)c(I)c1)C(=O)O` [T3, triiodothyronine]: the “total cellular protein of HO-1” value with HO-1 is “significantly enhanced total cellular protein of HO-1”. In addition, the concentration at 15 min in data set [1] (in vivo, male rats, individual animals, 15 min, single intratracheal dose 2.7 μg (~10.0 μg/kg)) is 2.44 ng/mL. Further, in data set [1] (female), the Cl_F_obs was 30.10 mL/h, the HL_Lambda_z was found to be 2.85 h, the AUC(0-t) was determined as 64.1 ng·h/mL and the Cmax amounted to 16.5 ng/mL. Besides, in data set [1] (female), the Cmax_D was 6.12 ng/mL/µg, the time to peak (Tmax) came out at 2 h and the Vz_F_obs is 123.60 mL. Besides, in data set [1] (male), the Cl_F_obs was determined as 74.29 mL/h, the HL_Lambda_z stood at 3.17 h, the AUC(0-t) is 25.4 ng·h/mL and the peak concentration (Cmax) was 6.6 ng/mL. Further, in data set [1] (male), the Cmax_D amounted to 2.44 ng/mL/µg, the Tmax was determined as 1 h and the Vz_F_obs is recorded as 339.44 mL. The “phosphorylation of Akt (p-Akt)” value with Akt is on record as “augmented phosphorylation of Akt at Ser473”.
